The results in this text go back to patent US6991908B1, “Antiobestic agents methods for screening antiobestic agents and kits comprising same” (Takeda Chemical Industries, Ltd., priority 1998, dated 2006).

The target in experiment [1] is T1, rat SLC-1 (Rattus norvegicus, UniProt P97639).
T1 construct: expressed in transfected cells; host or cells: CHO dhfr- cells, plasmid pAKK0-SLC-1, mainly clone #44
Briefly: cAMP synthesis inhibitory activity on rat SLC-1-expression CHO cells (forskolin-stimulated, cAMP EIA). It counts as cell-based. The conditions noted are these: 2 μM forskolin. Here is the method:
The CHO/SLC-1 cells prepared in EXAMPLE 4 and mock CHO cells were inoculated on a 24-well plate in 5×10^4 cells/well. After incubation for 48 hours, the cells were washed with Hanks' balanced salt solution (pH 7.4) supplemented with 0.2 mM 3-isobutylmethylxanthine, 0.05% BSA and 20 mM HEPES (hereinafter Hanks' balanced salt solution (pH. 7.4) supplemented with 0.2 mM 3-isobutylmethylxanthine, 0.05% BSA and 20 mM HEPES is referred to as a reaction buffer). Thereafter, 0.5 ml of the reaction buffer was added to the cells, which was kept warm in the medium for 30 minutes. The reaction buffer was removed and 0.25 ml of a fresh reaction buffer was added to the cells. Then, 0.25 ml of the reaction buffer containing the HPLC fraction and 2 μM for skolin was added to the cells followed by reacting at 37° C. for 24 minutes. By adding 100 μl of 20% perchloric acid, the reaction was terminated. The reaction mixture was then allowed to stand on ice for an hour to extract intracellular cAMP. The amount of cAMP in the extract was measured using a cAMP EIA kit (Amersham Pharmacia Biotech). As a result, the cAMP synthesis inhibitory activity specific to the CHO/SLC-1 cells was detected in fractions #33, #34 and #35 (FIG. 1). In FIG. 1, taking as 100% the amount obtained by subtracting the intracellular cAMP amount when adding the reaction buffer from the intracellular cAMP amount when adding the forskolin-containing reaction buffer, the cAMP synthesis inhibitory activity was expressed by % in terms of the intracellular cAMP amount obtained by subtracting the intracellular cAMP amount when adding the reaction buffer from the intracellular cAMP amount when adding the HPLC fraction (a 1 μl aliquot of each fraction diluted to 100-fold with DMSO was added).
The CHO/SLC-1 cells selected in EXAMPLE 4 were inoculated on a 24-well plate in 5×10^4 cells/well followed by cultivation for 48 hours. […] The amount of cAMP in the extract was measured using cAMP EIA kit (Amersham Pharmacia Biotech).

For experiment [2], the target named is T1, rat SLC-1. Description: Arachidonic acid metabolite release activity on rat SLC-1-expression CHO cells. It counts as cell-based. Here is the method:
The CHO/SLC-1 cells selected in EXAMPLE 4 were inoculated on a 24-well plate in 5×10^4 cells/well. After incubation for 24 hours, [^3H] arachidonic acid was added to each well in 0.25 μCi/well. Sixteen hours after the addition of [^3H] arachidonic acid, the cells were washed with Hanks' balanced salt solution (pH7.4) containing 0.05% BSA and 20 mM HEPES. […] Hereinafter Hanks' balanced salt solution (pH 7.4) containing 0.05% BSA and 20 mM HEPES is referred to as a reaction buffer. After incubating at 37° C. for 60 minutes, 400 μl of the reaction solution was charged in a scintillator and the amount of [^3H]arachidonic acid metabolites released into the reaction solution was measured using a scintillation counter.

The target in experiment [3] is T1, rat SLC-1. Description: GTPγS binding activity to rat SLC-1-expression CHO cell membrane fraction (Example 9). Type of experiment: biochemical. Here is the method:
First, preparation of the membrane fraction is described. To 1×10^8 CHO/SLC-1 cells was added 10 ml of a homogenate buffer (10 mM NaHCO3, 5 mM EDTA, 0.5 mM PMSF, 1 μg/ml pepstatin, 4 μg/ml E64, 20 μg/ml leupeptin), followed by cell disruption with a polytron (12,000 rpm, 1 min.). The disrupted cells were then centrifuged (1,000 g, 15 mins.) to give the supernatant. Next, the supernatant was subjected to ultracentrifugation (Beckman type 30 rotor, 30,000 rpm, 1 hour). The resulting precipitate was used as a rat SLC-1-expression CHO cell membrane.
The GTPyS binding activity was assayed as follows. The rat SLC-1-expression CHO cell membrane fraction was diluted with a buffer for membrane dilution (50 mM Tris-hydrochloride buffer (pH 7.4), 5 mM MgCl2, 150 mM NaCl, 1 μM GDP) to make a cell membrane fraction solution for assay having a protein concentration of […]. […] The resulting solution mixture was kept at 25° C. for an hour. The mixture was filtrated through a filter. After washing twice with 1.5 ml of a washing buffer (50 mM Tris-hydrochloride buffer (pH 7.4), 5 mM MgCl2, 1 mM EDTA, 0.1% BSA), radioactivity of the filter was measured using a liquid scintillation counter.
Background: GTPγS is a poorly hydrolysed GTP analogue; its binding reports G protein activation.

The target in experiment [4] is T2, human SLC-1 (Homo sapiens, UniProt Q99705).
T2 construct: expressed in transfected cells; host or cells: CHO dhfr- cells, plasmid pAKK0-hSLC-1(S) or pAKK0-hSLC-1(L)
T2 sequence (Q99705 with tags, fused parts or gaps): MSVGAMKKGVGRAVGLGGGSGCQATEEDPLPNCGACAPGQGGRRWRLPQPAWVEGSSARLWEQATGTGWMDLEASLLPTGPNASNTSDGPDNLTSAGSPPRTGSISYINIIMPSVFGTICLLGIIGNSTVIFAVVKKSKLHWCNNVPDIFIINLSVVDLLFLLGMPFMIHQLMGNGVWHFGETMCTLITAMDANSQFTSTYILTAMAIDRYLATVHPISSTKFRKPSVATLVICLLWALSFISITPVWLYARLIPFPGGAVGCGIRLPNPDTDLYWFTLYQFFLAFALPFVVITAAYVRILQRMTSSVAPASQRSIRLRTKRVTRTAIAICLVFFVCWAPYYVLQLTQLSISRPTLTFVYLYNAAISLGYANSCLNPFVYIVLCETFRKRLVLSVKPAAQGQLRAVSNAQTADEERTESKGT
Description: cAMP synthesis inhibitory activity on human SLC-1-expression CHO cells. The conditions noted are these: human SLC-1 expression cells (CHO/hSLC-1(S) or CHO/hSLC-1(L)), 2 μM forskolin. Type of experiment: cell-based. Here is the method: The CHO/hSLC-1(S) strain or the CHO/hSLC-1(L) strain, which was human SLC-1-expression CHO cells selected in EXAMPLE 13, was inoculated on a 24-well plate in 5×10^4 cells/well followed by cultivation for 48 hours. The cells were then washed with Hanks' balanced salt solution (pH 7.4) containing 0.2 mM 3-isobutylmethylxanthine, 0.05% BSA and 20 mM HEPES (hereinafter Hanks' balanced salt solution (pH 7.4) containing 0.2 mM 3-isobutylmethylxanthine, 0.05% BSA and 20 mM HEPES is referred to as a reaction buffer). Subsequently, 0.5 ml of the reaction buffer was added to the cells, which was maintained in the medium for 30 minutes. The reaction buffer was removed and 0.25 ml of a fresh reaction buffer was added to the cells. […] By adding 100 μl of 20% perchloric acid, the reaction was terminated. Next, the reaction mixture was allowed to stand on ice for an hour to extract intracellular cAMP. The amount of cAMP in the extract was measured using cAMP EIA kit (Amersham Pharmacia Biotech).

The target of experiment [5] is T2, human SLC-1. Description: Arachidonic acid metabolite release activity on human SLC-1-expression CHO cells. The conditions noted are these: human SLC-1 expression cells (CHO/hSLC-1(S) or CHO/hSLC-1(L)). Type of experiment: cell-based. Here is the method: The CHO/hSLC-1(S) strain or the CHO/hSLC-1(L) strain, which was human SLC-1-expression CHO cells selected in EXAMPLE 13, were inoculated on a 24-well plate in 5×10^4 cells/well. After incubation for 24 hours, [^3H] arachidonic acid was added in 0.25 μCi/well. Sixteen hours after the addition of [^3H] arachidonic acid, the cells were washed with Hanks' balanced salt solution (pH 7.4) containing 0.05% BSA and 20 mM HEPES. […] Hereinafter, Hanks' balanced salt solution (pH7.4) containing 0.05% BSA and 20 mM HEPES is referred to as a reaction buffer. After incubating at 37° C. for 60 minutes, 400 μl of the reaction solution was charged in a scintillator and the amount of [^3H] arachidonic acid metabolites released into the reaction solution was measured using a scintillation counter.

The target of experiment [6] is T2, human SLC-1. Briefly: GTPγS binding activity using human SLC-1-expression CHO cell membrane fraction (Example 16). Type of experiment: biochemical.
Description: A human SLC-1-expression CHO cell membrane fraction was prepared by the following procedure. Human SLC-1-expression CHO cells (1×10^8 cells) were suspended in phosphate buffered saline (pH 7.4) supplemented with 5 mM EDTA (ethylene diamine tetra acetic acid) followed by centrifugation. after 10 ml of a homogenate buffer (10 mM NaHCO3, 5 mM EDTA, pH 7.5) was added to the cell pellets, the mixture was homogenized with a polytron homogenizer. the homogenate was then centrifuged at 400×g for 15 minutes. the resulting supernatant was further centrifuged at 100,000×g for an hour to give membrane fraction precipitates. the precipitates were suspended in 2 ml of an assay buffer (50 mM Tris-HCl (pH 7.5), 1 mM EDTA, 0.1% BSA (bovine serum albumin), 10 mM MgCl2, 100 mM NaCl, 1 mM GDP (guanosine 5′-diphosphate), 0.25 mM PMSF (phenylmethylsulfonyl fluoride), 1 μg/ml pepstatin, 20 μg/ml leupeptin, 10 μg/ml phosphoramidon] and the suspension was centrifuged at 100,000×g for an hour. the cell membrane recovered as precipitates was resuspended in 20 ml of the assay buffer. after dispensing, the suspension was stored at −80° C., which may be thawed every time at use.
In experiment [7] the target is T2, human SLC-1. Briefly: Receptor binding test using [125I]-labeled MCH(4-19) and human SLC-1-expression CHO cell membrane fraction. The conditions noted are these: various membrane fraction concentrations; FIG. 9. Here is the method: The cell membrane fraction prepared from human SLC-1-expression CHO cells according to EXAMPLE 16 was diluted with an assay buffer (25 mM Tris-HCl, 1 mM EDTA (ethylene diamine tetra acetic acid), 0.1% BSA (bovine serum albumin), 0.25 mM PMSF (phenylmethylsulfonyl fluoride), 1 μg/ml pepstatin, 20 μg/ml leupeptin, 10 μg/ml phosphoramidon, pH 7.5) in various concentration.

Positions of bridges follow the written chain, without caps; N, C: chain ends. No end group written: not given here.

T1 sequence (P97639 whole entry): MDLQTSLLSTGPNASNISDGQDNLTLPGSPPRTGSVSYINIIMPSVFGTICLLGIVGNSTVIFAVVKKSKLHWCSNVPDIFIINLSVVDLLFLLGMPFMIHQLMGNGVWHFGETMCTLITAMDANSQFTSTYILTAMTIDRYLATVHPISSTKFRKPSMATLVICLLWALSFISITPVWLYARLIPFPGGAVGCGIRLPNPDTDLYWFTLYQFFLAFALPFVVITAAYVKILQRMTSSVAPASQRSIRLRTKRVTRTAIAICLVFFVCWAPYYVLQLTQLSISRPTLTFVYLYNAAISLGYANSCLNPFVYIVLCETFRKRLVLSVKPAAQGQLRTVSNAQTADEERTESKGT

For `CSCC[C@@H]1NC(=O)[C@@H](NC(=O)[C@H](CCCNC(=N)N)NC(=O)[C@H](CC(C)C)NC(=O)[C@H](CCSC)NC(=O)[C@H](CC(=O)O)NC(=O)[C@H](Cc2ccccc2)NC(=O)[C@@H](N)CC(=O)O)CSSC[C@@H](C(=O)N[C@@H](Cc2c[nH]c3ccccc23)C(=O)N[C@@H](CCC(N)=O)C(=O)N[C@H](C(=O)O)C(C)C)NC(=O)[C@@H]2CCCN2C(=O)[C@H](CCCNC(=N)N)NC(=O)[C@H](Cc2ccc(O)cc2)NC(=O)[C@H](C(C)C)NC(=O)[C@H](CCCNC(=N)N)NC(=O)CNC(=O)[C@H](CC(C)C)NC1=O` [MCH], the “concentration at which the amount of intracellular cAMP was obviously reduced” value in experiment [1] was 0.1 nM. Moreover, the “cAMP synthesis (production) inhibitory activity, dose dependence” value in experiment [1] (FIG. 5) is listed as “decreased dose-dependently”; in experiment [1] (FIG. 5, listed as rat MCH), “showed the inhibitory activity dose-dependently”. Moreover, the “concentration at which apparent release of arachidonic acid metabolites occurred” value in experiment [2] (37° C. 60 minutes) is reported as 3 nM. Moreover, the “arachidonic acid metabolite release, dose dependence” value in experiment [2] (FIG. 6) was “dose-dependently released”. For the same compound, the “amount of [35S]-GTPγS bound to the membrane fraction, dose dependence” value in experiment [3] is on record as “dose-dependently increased”. In addition, in experiment [3] (25° C. 1 hour, read-out: concentration inducing 50% binding of [35S]-GTPγS), the EC50 is ~0.5 nM. The “amount of intracellular cAMP, dose dependence” value in experiment [4] was “decreased dose-dependently”. For the same compound, the “arachidonic acid metabolite release activity, dose dependence” value in experiment [5] was “showed the arachidonic acid metabolite release activity dose-dependently”. For the same compound, in experiment [6], the “amount of [35S]-GTPγS bound, dose dependence” value is on record as “increased dose-dependently”.
As to “[^125I]-[N-(3-(4-Hydroxy-3-iodophenyl)propionyl)-Met^4]-MC H(4-19) ({3‑(4-hydroxy-3-(125I)iodophenyl)propionyl}-MLRCMLGRVYRPCWQV; disulfide 4-13) [[^125I]-labeled MCH(4-19)]”, the “specific binding (SB) to the cell membrane fraction” value in experiment [7] is “recognized dependent on the concentration of the membrane fraction”.
